According to patent publication US11053204B2, “Pyrimidinyloxy benzene derivatives as herbicides” (FMC Corporation, priority 2015, dated 2021):

What was measured:
Format in all cases: in vivo
[1] = test system: Italian ryegrass (Lolium multiflorum); assay: Test A preemergence, visual injury rating; conditions: Lolium multiflorum, pre-emergence, 240 h, 0 to 100 scale (0 no effect, 100 complete control), read-out: Ryegrass, Italian plant response rating
How it was run: (§1)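 Visual injury scored 0–100 (100 = complete control) against untreated controls about 10 days after treatment in a greenhouse. Test chemicals, formulated with surfactant in non-phytotoxic solvent, were sprayed on soil preemergence or on 2-10 cm, one- to two-leaf plants postemergence.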

[2] = test system: barnyardgrass (Echinochloa crus-galli); assay: Test A preemergence, visual injury rating; conditions: Echinochloa crus-galli, pre-emergence, 240 h, 0 to 100 scale (0 no effect, 100 complete control), read-out: Barnyardgrass plant response rating
How it was run: as §1

[3] = test system: giant foxtail (Setaria faberii); assay: Test A preemergence, visual injury rating; conditions: Setaria faberi, pre-emergence, 240 h, 0 to 100 scale (0 no effect, 100 complete control), read-out: Foxtail, Giant plant response rating
How it was run: as §1

kochia (Kochia scoparia) [4] = assay: Test A preemergence, visual injury rating; conditions: Bassia scoparia, pre-emergence, 240 h, 0 to 100 scale (0 no effect, 100 complete control), read-out: Kochia plant response rating
How it was run: as §1

[5] = test system: pigweed (Amaranthus retroflexus); assay: Test A preemergence, visual injury rating; conditions: Amaranthus retroflexus, pre-emergence, 240 h, 0 to 100 scale (0 no effect, 100 complete control), read-out: Pigweed plant response rating
How it was run: as §1

[6] = test system: ragweed (common ragweed, Ambrosia elatior); assay: Test A preemergence, visual injury rating; conditions: Ambrosia artemisiifolia, pre-emergence, 240 h, 0 to 100 scale (0 no effect, 100 complete control), read-out: Ragweed plant response rating
How it was run: as §1

[7] = test system: ducksalad (Heteranthera limosa); assay: Test B flooded paddy test, plant response rating; conditions: Heteranthera limosa, 312 h; 250 g ai/ha; Flood; scale of 0 to 100 where 0 is no effect and 100 is complete control; 13 to 15 days
How it was run: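 Pots were flooded to 3 cm above the soil surface at treatment, compound applied directly to the paddy water, and that depth held throughout. Plants were kept in a greenhouse for 13 to 15 days, then visually rated against untreated controls.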

[8] = test system: barnyardgrass (Echinochloa crus-galli); assay: Test C postemergence, plant response rating; conditions: Echinochloa crus-galli, post-emergence
How it was run: (§2)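 Preemergence: seeds sown in loam–sand blend or silt loam and sprayed with test chemicals in a non-phytotoxic surfactant-containing solvent. Postemergence: potted plants at 2–18 cm (1–4-leaf stage) sprayed with the same formulation. After 13–15 d in greenhouse, visual rating versus controls on 0 (no effect) to 100 (complete control) scale.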

corn (Zea mays) = assay: Test C postemergence, plant response rating; conditions: Zea mays, post-emergence
How it was run: as §2

[9] = test system: crabgrass, large (large crabgrass, Digitaria sanguinalis); assay: Test C postemergence, plant response rating; conditions: Digitaria sanguinalis, post-emergence
How it was run: as §2

kochia (Kochia scoparia) [10] = assay: Test C postemergence, plant response rating; conditions: Bassia scoparia, post-emergence
How it was run: as §2

[11] = test system: lambsquarters (Chenopodium album); assay: Test C postemergence, plant response rating; conditions: Chenopodium album, post-emergence
How it was run: as §2

[12] = test system: morningglory (Ipomoea coccinea); assay: Test C postemergence, plant response rating; conditions: Ipomoea, post-emergence
How it was run: as §2

[13] = test system: nutsedge, yellow (yellow nutsedge, Cyperus esculentus); assay: Test C postemergence, plant response rating; conditions: Cyperus, post-emergence
How it was run: as §2

[14] = test system: oat, wild (wild oat Avena fatua); assay: Test C postemergence, plant response rating; conditions: Avena fatua, post-emergence
How it was run: as §2

[15] = test system: ragweed (common ragweed, Ambrosia elatior); assay: Test C postemergence, plant response rating; conditions: Ambrosia artemisiifolia, post-emergence
How it was run: as §2

[16] = test system: velvetleaf (Abutilon theophrasti); assay: Test C postemergence, plant response rating; conditions: Abutilon theophrasti, post-emergence
How it was run: as §2

[17] = 62 g ai/ha, scale 0 to 100 (0 no effect, 100 complete control)
[18] = 125 g ai/ha, scale 0 to 100 (0 no effect, 100 complete control)

C=CCOC(=O)c1c(Br)cccc1Oc1ncc(Cl)cn1 [Compound 22, 2-propen-1-yl 2-bromo-6-[(5-chloro-2-pyrimidinyl)oxy]benzoate]
65%: pest or weed control at 16 g/ha ([11]; 16 g ai/ha, scale 0 to 100)
50%: pest or weed control at 16 g/ha (kochia (Kochia scoparia) [10]; 16 g ai/ha, scale 0 to 100) | pest or weed control at 125 g/ha (kochia (Kochia scoparia) [10]; [18]) | pest or weed control at 125 g/ha [12, 18] | pest or weed control at 62 g/ha [15, 17] | pest or weed control at 125 g/ha [15, 18] | pest or weed control at 16 g/ha ([16]; 16 g ai/ha, scale 0 to 100)
90%: pest or weed control at 500 g/ha ([1]; 500 g ai/ha)
15%: plant injury at 125 g/ha (corn (Zea mays); [18]) | pest or weed control at 31 g/ha ([9]; 31 g ai/ha, scale 0 to 100)
55%: pest or weed control at 62 g/ha ([16]; 62 g ai/ha, scale 0 to 100 (0 no effect, 100 complete control), read-out: Velvetleaf plant response rating)
80%: pest or weed control at 31 g/ha (kochia (Kochia scoparia) [10]; 31 g ai/ha, scale 0 to 100)
75%: pest or weed control at 125 g/ha [11, 18]
85%: pest or weed control at 62 g/ha (kochia (Kochia scoparia) [10]; [17]) | pest or weed control at 125 g/ha [16, 18]
0%: pest or weed control at 125 g/ha ([6]; 125 g ai/ha) | pest or weed control at 500 g/ha ([6]; 500 g ai/ha) | pest or weed control at 16 g/ha ([13]; 16 g ai/ha, scale 0 to 100) | pest or weed control at 31 g/ha ([13]; 31 g ai/ha, scale 0 to 100) | pest or weed control at 16 g/ha ([14]; 16 g ai/ha, scale 0 to 100) | pest or weed control at 31 g/ha ([14]; 31 g ai/ha, scale 0 to 100) | pest or weed control at 62 g/ha [14, 17]
25%: pest or weed control at 62 g/ha [9, 17] | pest or weed control at 125 g/ha [9, 18]
5%: pest or weed control at 16 g/ha ([8]; 16 g ai/ha, scale 0 to 100) | pest or weed control at 31 g/ha ([8]; 31 g ai/ha, scale 0 to 100) | Corn plant response rating (crop injury, 0 = no effect, 100 = complete kill) at 16 g/ha (corn (Zea mays); 16 g ai/ha, scale 0 to 100) | Corn plant response rating (crop injury, 0 = no effect, 100 = complete kill) at 31 g/ha (corn (Zea mays); 31 g ai/ha, scale 0 to 100) | plant injury at 62 g/ha (corn (Zea mays); [17]) | pest or weed control at 16 g/ha ([12]; 16 g ai/ha, scale 0 to 100) | pest or weed control at 62 g/ha [13, 17] | pest or weed control at 125 g/ha [13, 18] | pest or weed control at 125 g/ha [14, 18] | pest or weed control at 16 g/ha ([15]; 16 g ai/ha, scale 0 to 100)
35%: pest or weed control at 62 g/ha [12, 17] | pest or weed control at 31 g/ha ([15]; 31 g ai/ha, scale 0 to 100)
30%: pest or weed control at 125 g/ha ([1]; 125 g ai/ha) | pest or weed control at 125 g/ha (kochia (Kochia scoparia) [4]; 125 g ai/ha)
10%: pest or weed control at 62 g/ha [8, 17] | pest or weed control at 125 g/ha [8, 18] | pest or weed control at 16 g/ha ([9]; 16 g ai/ha, scale 0 to 100) | pest or weed control at 31 g/ha ([12]; 31 g ai/ha, scale 0 to 100)
70%: pest or weed control at 31 g/ha ([11]; 31 g ai/ha, scale 0 to 100) | pest or weed control at 62 g/ha [11, 17]
40%: pest or weed control at 125 g/ha ([2]; 125 g ai/ha) | pest or weed control at 250 g/ha [7] | pest or weed control at 31 g/ha ([16]; 31 g ai/ha, scale 0 to 100)
100%: pest or weed control at 500 g/ha ([2]; 500 g ai/ha) | pest or weed control at 125 g/ha ([3]; 125 g ai/ha) | pest or weed control at 500 g/ha ([3]; 500 g ai/ha) | pest or weed control at 500 g/ha (kochia (Kochia scoparia) [4]; 500 g ai/ha) | pest or weed control at 125 g/ha ([5]; 125 g ai/ha) | pest or weed control at 500 g/ha ([5]; 500 g ai/ha)
